Test results published in ChEMBL document CHEMBL3508140 (2016).

What was measured:
[1] = (§1) Terminal half-life of epirubicin-glucuronide following intravenous epirubicin at 1 mg.Kg-1 dose in rabbit; format: ADME, organism-based, Oryctolagus cuniculus, New Zealand White, Plasma; details: in vivo
[2] = Recovery of epirubicin-glucuronide following intravenous epirubicin at 4 mg.Kg-1 dose in rat; format: ADME, organism-based, SD, Plasma; details: in vivo
[3] = Terminal half-life of epirubicinol-glucuronide following intravenous epirubicin at 3 mg.Kg-1 dose in rabbit; format: ADME, organism-based, Oryctolagus cuniculus, New Zealand White, Plasma; details: in vivo
[4] = Recovery of epirubicinol-glucuronide following intraperitoneal epirubicin at 4 mg.Kg-1 dose in mouse; format: ADME, organism-based, CD-1, Plasma; details: in vivo, ip
[5] = Recovery of epirubicin-glucuronide following intraperitoneal epirubicin at 4 mg.Kg-1 dose in mouse; format: ADME, organism-based, CD-1, Plasma; details: in vivo, ip
[6] = Recovery of epirubicinol-glucuronide following intraperitoneal epirubicin at 4 mg.Kg-1 dose in hamster; format: ADME, organism-based, Cricetulus griseus, Plasma; details: chinese hamster, in vivo, ip
[7] = AUC(0-2 h) of epirubicin-glucuronide following intravenous epirubicin at 1 mg.Kg-1 dose in rabbit; format: ADME, organism-based, Oryctolagus cuniculus, New Zealand White, Plasma; details: in vivo
[8] = Urinary excretion of epirubicinol glucuronide following epirubicin at 60-150 mg.m-2 dose in cancer patients; format: ADME, organism-based, Urine; details: human, in vivo
[9] = Biliary excretion of epirubicinol glucuronide following epirubicin at 50 mg.m-2 dose in cancer patients; format: ADME, organism-based, Bile; details: human, in vivo; at 50 mg/m2
[10] = (§2) Terminal half-life of epirubicin-glucuronide following intravenous epirubicin at 3 mg.Kg-1 dose in rabbit; format: ADME, organism-based, Oryctolagus cuniculus, New Zealand White, Plasma; details: in vivo
[11] = Urinary excretion of epirubicin glucuronide following epirubicin at 60-150 mg.m-2 dose in cancer patients; format: ADME, organism-based, Urine; details: human, in vivo
[12] = Recovery of epirubicin-glucuronide following intraperitoneal epirubicin at 4 mg.Kg-1 dose in hamster; format: ADME, organism-based, Cricetulus griseus, Plasma; details: chinese hamster, in vivo, ip
[13] = (§3) Urinary excretion of epirubicinol glucuronide following epirubicin at 50 mg.m-2 dose in cancer patients; format: ADME, organism-based, Urine; details: human, in vivo; at 50 mg/m2
[14] = Terminal half-life of epirubicinol-glucuronide following intravenous epirubicin at 1 mg.Kg-1 dose in rabbit; format: ADME, organism-based, Oryctolagus cuniculus, New Zealand White, Plasma; details: in vivo
[15] = Recovery of epirubicinol-glucuronide following intravenous epirubicin at 1.5 mg.Kg-1 dose in man; format: ADME, organism-based, Plasma; details: human, in vivo
[16] = Recovery of epirubicinol-glucuronide following intravenous epirubicin at 4 mg.Kg-1 dose in rabbit; format: ADME, organism-based, Oryctolagus cuniculus, New Zealand White, Plasma; details: in vivo
[17] = as §1; format: ADME, organism-based, Oryctolagus cuniculus, New Zealand White, Plasma; details: in vivo; remark: listed apart in the source
[18] = Urinary excretion of epirubicinol glucuronide following epirubicin at 75-90 mg.m-2 dose in cancer patients; format: ADME, organism-based, Urine; details: human, in vivo
[19] = Biliary excretion of epirubicin glucuronide following epirubicin at 50 mg.m-2 dose in cancer patients; format: ADME, organism-based, Bile; details: human, in vivo; at 50 mg/m2
[20] = as §3; format: ADME, organism-based, Urine; details: human, in vivo; at 50 mg/m2; remark: listed apart in the source
[21] = Recovery of epirubicin-glucuronide following intravenous epirubicin at 1.5 mg.Kg-1 dose in man; format: ADME, organism-based, Plasma; details: human, in vivo
[22] = AUC(0-2 h) of epirubicinol-glucuronide following intravenous epirubicin at 3 mg.Kg-1 dose in rabbit; format: ADME, organism-based, Oryctolagus cuniculus, New Zealand White, Plasma; details: in vivo
[23] = Urinary excretion of epirubicin glucuronide following epirubicin at 60 mg.m-2 dose in cancer patients; format: ADME, organism-based, Urine; details: human, in vivo; at 60 mg/m2
[24] = AUC(0-2 h) of epirubicinol-glucuronide following intravenous epirubicin at 1 mg.Kg-1 dose in rabbit; format: ADME, organism-based, Oryctolagus cuniculus, New Zealand White, Plasma; details: in vivo
[25] = as §2; format: ADME, organism-based, Oryctolagus cuniculus, New Zealand White, Plasma; details: in vivo; remark: listed apart in the source
[26] = (§4) Urinary excretion of epirubicin glucuronide following epirubicin at 50 mg.m-2 dose in cancer patients; format: ADME, organism-based, Urine; details: human, in vivo; at 50 mg/m2
[27] = Urinary excretion of epirubicinol glucuronide following epirubicin at 60 mg.m-2 dose in cancer patients; format: ADME, organism-based, Urine; details: human, in vivo; at 60 mg/m2
[28] = Urinary excretion of epirubicin glucuronide following epirubicin at 75-90 mg.m-2 dose in cancer patients; format: ADME, organism-based, Urine; details: human, in vivo
[29] = Recovery of epirubicinol-glucuronide following intravenous epirubicin at 4 mg.Kg-1 dose in rat; format: ADME, organism-based, SD, Plasma; details: in vivo
[30] = Recovery of epirubicin-glucuronide following intravenous epirubicin at 4 mg.Kg-1 dose in rabbit; format: ADME, organism-based, Oryctolagus cuniculus, New Zealand White, Plasma; details: in vivo
[31] = as §4; format: ADME, organism-based, Urine; details: human, in vivo; at 50 mg/m2; remark: listed apart in the source
[32] = AUC(0-2 h) of epirubicin-glucuronide following intravenous epirubicin at 3 mg.Kg-1 dose in rabbit; format: ADME, organism-based, Oryctolagus cuniculus, New Zealand White, Plasma; details: in vivo

For `COc1cccc2c1C(=O)c1c(O)c3c(c(O)c1C2=O)C[C@@](O)(C(=O)CO)C[C@@H]3O[C@H]1C[C@H](N)[C@@H](O[C@@H]2O[C@H](C(=O)O)[C@@H](O)[C@H](O)[C@H]2O)[C@H](C)O1`, the t1/2 [1] was 9 min, the Compound recovery [2] was 0 10^-9M and the t1/2 [3] was 23.4 min. For the same molecule, the Compound recovery [4] was 0 10^-9M, the Compound recovery [5] was 0 10^-9M and the Compound recovery [6] was 0 10^-9M. For the same molecule, the AUC [7] was 7.64 ng·h/mL, the Compound recovery [8] was 0.3% and the Compound recovery [9] was 1.9%. For the same molecule, the t1/2 [10] was “OUTCOME = Not calculated”, the Compound recovery [11] was 1.3% and the Compound recovery [12] was 0 10^-9M. For the same molecule, the Compound recovery [13] was 0.4%, the t1/2 [14] was 12.6 min and the Compound recovery [15] was 90 10^-9M. For the same molecule, the Compound recovery [16] was 0.5 10^-9M, the t1/2 [17] was 61.2 min and the Compound recovery [18] was 0.8%. The Compound recovery [19] was 4.6%, the Compound recovery [20] was 1.7% and the Compound recovery [21] was 460 10^-9M. It also gave an AUC [22] of 4.01 ng·h/mL, a Compound recovery [23] of 3.2% and an AUC [24] of 1.47 ng·h/mL. It also gave a t1/2 [25] of 29.4 min, a Compound recovery [26] of 4.6% and a Compound recovery [27] of 0.8%. The Compound recovery [28] was 3.2%, the Compound recovery [29] was 0 10^-9M and the Compound recovery [30] was 1.7 10^-9M. It also gave a Compound recovery [31] of 3.3% and an AUC [32] of 15.83 ng·h/mL.
